Test results: patent publication US20150158914A1, “PEPTIDES, CONSTRUCTS AND USES THEREFOR” (priority 2010, published 2015)
Entries after “also recorded” stand apart in the source; their conditions may differ. Ends that are not written are not given here. * marks the point of attachment. FITC = O=C1OC2(c3ccc(O)cc3Oc3cc(O)ccc32)c2ccc(NC(=S)*)cc21

Tests used:
HepG2 cells [1] = test: Assay for cell permeability of X-protein peptides (fluorescence and confocal microscopy); assay type: cell-based, human; conditions: for uptake by HepG2 cells (cell permeability): FITC-labelled peptide 10 μM, 3 h, medium without FCS; for intracellular distribution (confocal slicing): FITC-labelled peptide, HepG2 cells
Experimental: (§1) The cells were then incubated overnight at 37° and 5% CO2, and then washed thrice with media without FCS. The X-protein peptide in 250 μl of appropriate media without FCS was added to the cells at a final concentration of 10 μM, and the slides incubated for 3 h at 37° C. and 5% CO2. The cells were washed with PBS, fixed with 4% formaldahyde in PBS for 30 min, and washed thrice with PBS. […] The slides were dried overnight in the dark, and examined by microscopy by using a Nikon E600 fluorescent microscope. Photos were taken using Nikon ACT-1 software. For further examination, slides were then examined by confocal microscopy using a Leica TCS-SP2 confocal microscope.

HepG2 cells [2] = test: Pathway of peptide entry: pretreatment with cytochalasin D or heparin; assay type: cell-based, human; conditions: 30 min pretreatment, 10 μM peptide, 3 h; for effect of heparin pretreatment on peptide entry: 2 μg/ml heparin
Experimental: Cells were plated overnight at 1×10^5 per well in eight chamber slides in complete MEM medium containing 10% FCS. The cells were washed thrice with MEM medium, and pretreated for 30 min with either 10 μm cytochalasin D or 2 μg/ml of heparin in MEM at 37° C. Peptide was then added at a concentration of 10 μM and cells were incubated for 3 h at 37° and 5% CO2. The cells were washed with PBS, fixed with 4% formaldehyde and PBS for 30 min, and a drop of Prolong Gold antifade reagent with DAPI (Invitrogen cat# P36931) was added to each well. The slides were dried overnight in the dark, and examined by microscopy by using a Nikon E600 fluorescent microscope. Photos were taken using Nikon ACT-1 software.
Exactly how cell-permeable peptides pass through the plasma membrane of cells is still not fully understood. […] Actin elongation on the cell surface leads to an extension of the plasma membrane into the extracellular environment. When the plasma membrane fuses back with itself it forms macropinosomes, and in doing so encapsulates and internalizes a large volume of extracellular fluid. Another mechanism is via the binding of peptides to cell surface heparan sulphate proteoglycans, which leads to internalization of the peptide through an endocytic process. HepG2 cells were pretreated with cytochalasin D and heparin, and then incubated with FITC-labelled cell permeable peptides aa 16-22, and aa 16-35 for 3 h to determine whether either of the above two mechanisms mediated cell uptake of the X-protein peptides. Control cells were treated with the X-protein peptides but were not treated with either chemical. Cytochalasin D is an F-actin elongation inhibitor, which inhibits macropinocytosis by inhibiting extension of the plasma membrane. Heparin would be expected to antagonize the binding of the peptides to cell surface heparan sulphate proteoglycans.

[3] = molecular target: T1, X-protein N-terminal peptide 1-50 (Hepatitis B virus genotype C subtype adr, UniProt Q81163, DEL44-44/P38S/S41A/S42F/V5L); test: Peptide binding assay: FITC-peptides on peptide 1-50-coated plates; conditions: FITC-peptide at 10, 20, 40 μg/ml, 30 min
T1 construct: The parent peptide containing aa 1-50 conjugated N-terminally to a biotin tag; purchased; host or cells: chemical synthesis
Experimental: Qligomerization peptides were received in powdered form, and were weighed and diluted in a sterile 10% DMSO solution to make a 10 mg/ml stock solution. The wells of a Reactibind neutravidin-coated 96 well plate (Thermoscientific cat #15507) were thrice washed with 200 μl of plate washing buffer. Peptide 1-50, which contains a biotin tag, was diluted to 10 μg/ml in wash buffer and 100 μl of the solution was placed into each well being used. The plate was incubated at room temperature for 2 h, and the wells washed thrice with 200 μl of wash buffer. Truncated fluorescent variants of peptide 1-50 at 40 μg/ml, 20 μg/ml, and 10 μg/ml were added to the wells in triplicate, and the plates incubated at room temperature for 30 min. The wells were then washed thrice with 200 μl of wash buffer under low light conditions, and the plate read on a Biotek fluorescent plate reader at an excitation wavelength of 490 nm and an emission wavelength of 520 nm.
A ligand-binding assay was performed using streptavidin-coated plates in order to define the minimum peptide motif needed for dimerization of the X-protein. In this scenario the X-protein monomer serves as its own ligand. […] A series of short peptides from the region encoding aa 1-50 were synthesized. The parent peptide containing aa 1-50 conjugated N-terminally to a biotin tag was added to the streptavidin coated plates. […] Non-biotinylated peptides encoding aa 1-20, 16-35, 21-40 and 34-53 were added at 10, 20, and 40 μg/ml to the wells coated with peptide aa 1-50. The smaller peptides were each conjugated to a FITC tag for detection using a fluorescent plate reader. […] Binding performed with lesser concentrations of the peptides was not significant. Even smaller peptides encompassing that region 16-35 were made to determine whether the aa 16-35 was the minimum peptide motif needed for X-protein dimerization. These peptides synthesized, namely aa 16-26, 16-24, and 16-22 were analyzed using the same peptide binding assay. […] Thus of the peptides examined, the minimal peptide motif needed for dimerization of the X-protein is the […] peptide 16-35.

[4] = test system: DU145 prostate carcinoma cell line; test: Peptide uptake by other cell lines; assay type: cell-based, human; conditions: DU145, 3 h
Experimental: as §1
(§2) The X-protein cell-permeable peptide aa 16-22 was tested for its ability to be taken up by other mammalian cell lines including the human C32 melanoma, DU145 prostate carcinoma, TK1 T cell lymphoma, H441 lung carcinoma, Rin-m5f rat pancreatic islet tumor and Cos-1/7 green monkey kidney cell lines. TK1 cells are suspension cells whereas all other cell lines are adherent cells. Cells were incubated with the fluoresceinated X-protein cell-permeable peptide 16-22 for 3 h in medium appropriate for that cell line in the absence of FCS. The HepG2 cell line was used as a positive control. The X-protein peptide was able enter all adherent cell lines regardless of type or source of the cell (FIGS. 22 and 23).

[5] = test system: H441 lung carcinoma cell line; test: Peptide uptake by other cell lines; assay type: cell-based, human; conditions: H441, 3 h
Experimental: as §1, §2

C32 melanoma cell line = test: Peptide uptake by other cell lines; assay type: cell-based, human; conditions: C32, 3 h
Experimental: as §1, §2

[6] = test system: nonadherent cell line TK1; test: Peptide uptake by suspension cell line; assay type: cell-based; conditions: TK1 in suspension, 3 h; listed as X-protein cell-permeable peptide aa 16-22
Experimental: as §1, §2

[7] = test system: nonadherent erythrocytes and platelets; test: Peptide uptake in whole blood; assay type: cell-based; conditions: whole blood in 10 mM citrate buffer, 3 h
Experimental: Whole blood was incubated with the fluoresceinated X-protein cell-permeable peptide aa 16-22 for 3 h to determine whether erythrocytes and platelets are able to take up the peptide. Blood was collected from a finger prick and suspended in 10 mM citrate buffer to prevent the blood clotting. After incubation with peptide the cells were washed in PBS and a blood smear prepared on a glass slide. The cells were stained with Diff-Quik.

[8] = listed as X-protein cell-permeable peptide 16-22

| Substance | uptake by HepG2 cells (cell permeability) (HepG2 cells [1]; listed as aa 16-35) | intracellular distribution (confocal slicing) (HepG2 cells [1]; listed as aa 16-35) | effect of heparin pretreatment on peptide entry (HepG2 cells [2]; listed as aa 16-35) | effect of cytochalasin D pretreatment on peptide entry (HepG2 cells [2]) | binding to peptide 1-50 (fluorescence) [3] | entry into cells [4] | uptake of the peptide, cells positive ([4]; no FCS) | entry into cells [5] | uptake of the peptide, cells positive ([5]; no FCS) | entry into cells (C32 melanoma cell line) | uptake of the peptide, cells positive (C32 melanoma cell line; no FCS) | entry into cells [6] | uptake by HepG2 cells (cell permeability) (HepG2 cells [1]; [8]) | uptake by HepG2 cells (cell permeability) (HepG2 cells [1]; listed as aa 16-22) | intracellular distribution (confocal slicing) (HepG2 cells [1]; listed as aa 16-22) | uptake of the peptide, cells positive (HepG2 cells [1]; HepG2, 3 h, no FCS) | effect of heparin pretreatment on peptide entry (HepG2 cells [2]; listed as aa 16-22) | uptake by erythrocytes and platelets [7, 8] | uptake by erythrocytes and platelets ([7]; listed as X-protein cell-permeable peptide aa 16-22) |
| --- | --- | --- | --- | --- | --- | --- | --- | --- | --- | --- | --- | --- | --- | --- | --- | --- | --- | --- | --- |
| FITC-Acp-LCLRPVGAESRGRPVSGPFG [Peptide 16-35] | cell-permeable; also recorded: readily taken up by the cells | taken up into the cytoplasm and nucleus; also recorded: taken up into the cell cytoplasm, as well as into the nucleus | dependent on heparin binding; also recorded: effectively blocked peptide entry into the cells | no effect on the entry of the peptides into the cell | bound significantly more strongly to peptide 1-50; also recorded: binds to the X-protein N-terminal peptide 1-50 | – | – | – | – | – | – | – | – | – | – | – | – | – | – |
| FITC-LCLRPVG ({FITC}-LCLRPVG) [Peptide 16-22] | – | – | – | no effect on the entry of the peptides into the cell | could not match the strong binding shown by the parental peptide 16-35 | able to enter | > 90 % cells positive | taken up less efficiently | 60 to 70 % cells positive | able to enter | > 90 % cells positive | completely unable to enter | able to enter | cell-permeable, being taken up by cells at a level equivalent to that of the parental peptide aa 16-35; also recorded: taken up into the cells | taken up into both the cytoplasm and nucleus of cells | > 90 % cells positive | dependent on heparin binding; also recorded: effectively blocked peptide entry into the cells | does not enter | None of the cell types present |
